Literature values in patent US8987322B2, “Pharmaceutical formulations for carrier-mediated transport statins and uses thereof” (Circ Pharma Research and Development Limited, priority 2003, dated 2015).

Assays:
[1] = like that found in the stomach
[2] = not given; remark: listed apart in the source
[3] = not given; remark: listed apart in the source
rat hepatocytes = conditions: White (2002), read-out: IC50, inhibition of sterol synthesis
HMG-CoA reductase = target: T1, HMG-CoA reductase (Homo sapiens, UniProt P04035)
T1 sequence (P04035 1-888): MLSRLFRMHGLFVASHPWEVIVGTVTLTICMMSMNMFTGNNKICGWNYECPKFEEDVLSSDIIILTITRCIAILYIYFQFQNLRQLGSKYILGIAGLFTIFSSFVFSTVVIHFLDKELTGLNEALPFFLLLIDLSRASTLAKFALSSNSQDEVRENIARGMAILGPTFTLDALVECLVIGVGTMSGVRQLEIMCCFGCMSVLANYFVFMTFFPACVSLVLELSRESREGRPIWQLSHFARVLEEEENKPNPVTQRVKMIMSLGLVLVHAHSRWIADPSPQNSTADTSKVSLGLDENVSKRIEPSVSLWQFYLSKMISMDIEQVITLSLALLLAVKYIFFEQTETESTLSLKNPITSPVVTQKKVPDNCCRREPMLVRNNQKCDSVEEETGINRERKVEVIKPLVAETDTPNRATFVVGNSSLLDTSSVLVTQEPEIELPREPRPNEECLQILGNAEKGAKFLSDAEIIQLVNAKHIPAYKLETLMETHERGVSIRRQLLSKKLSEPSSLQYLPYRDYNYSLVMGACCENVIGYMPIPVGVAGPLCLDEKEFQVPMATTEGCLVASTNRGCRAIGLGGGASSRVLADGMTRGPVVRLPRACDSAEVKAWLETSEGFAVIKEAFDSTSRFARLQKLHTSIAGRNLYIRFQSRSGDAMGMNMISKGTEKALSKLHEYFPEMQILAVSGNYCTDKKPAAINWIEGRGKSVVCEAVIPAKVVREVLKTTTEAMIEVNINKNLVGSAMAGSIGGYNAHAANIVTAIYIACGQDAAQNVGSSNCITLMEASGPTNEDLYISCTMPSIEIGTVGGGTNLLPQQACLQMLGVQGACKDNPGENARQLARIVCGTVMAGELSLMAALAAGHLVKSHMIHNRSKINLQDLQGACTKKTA

[4] = tested on: LDL-C, HDL-C and triglyceride levels; conditions: Malinowski (1998)

stability in an acidic environment [1] | clearance through biliary excretion ([3]; Cheng-Lai (2003)) | excreted in the urine ([3]; Cheng-Lai (2003)) | hepatic extraction (share of the absorbed dose extracted by the liver) ([3]; Igel et al. (2002)) | dose dependence of Cmax and AUC ([3]; doses ranging from 5 to 80 mg) | elimination half-life (t1/2) ([3]; in vivo) | share of the inhibitory activity due to the parent compound (HMG-CoA reductase; White (2002)) | fraction of drug absorbed from the intestine taken up by the liver ([3]; first-pass) | fraction of orally administered drug absorbed from the intestine ([3]; oral) | systemic availability of active inhibitors (parent drug and its metabolites) ([3]; oral) | share of atorvastatin's inhibitory activity accounted for by its o-hydroxylated and p-hydroxylated metabolites (HMG-CoA reductase) | duration of HMG-CoA reductase inhibition (HMG-CoA reductase; due to the inhibitory activity of metabolites) | Compound | water solubility class as defined in the U.S. Pharmacopeia (2002) | adverse effect at high doses ([2]; 80 mg and higher, phase III clinical trials) | tolerability in humans ([2]; doses ranging from 1 to 40 mg) | effect of food on absorption ([3]; presence of food) | IC50 (rat hepatocytes) | reduction of LDL-C levels [4]
unstable in an acidic environment | – | – | – | – | – | – | – | – | – | – | – | CC[C@H](C)C(=O)O[C@H]1C[C@H](O)C=C2C=C[C@H](C)[C@H](CC[C@@H](O)C[C@@H](O)CC(=O)O)[C@H]21 [pravastatin] | – | – | – | – | – | –
stable in acidic environments | 90% | 10% | up to 90% | relatively linear relationship | 20 h | 90% | – | – | – | – | – | CC(C)c1nc(N(C)S(C)(=O)=O)nc(-c2ccc(F)cc2)c1/C=C/[C@@H](O)C[C@@H](O)CC(=O)O (single isomer, unassigned) [rosuvastatin] | sparingly soluble (“sparingly soluble” refers to an aqueous solubility that ranges from about 1/30 to about 1/100 (mg/ml)) | associated with myopathy | well tolerated | overall extent of absorption remains constant | 0.16 nM | –
– | – | – | – | – | – | – | ≥ 70% | about 30% | 30% | approximately 70% | 20 to 30 h | CC(C)c1c(C(=O)Nc2ccccc2)c(-c2ccccc2)c(-c2ccc(F)cc2)n1CC[C@@H](O)C[C@@H](O)CC(=O)O [atorvastatin] | – | – | – | – | – | 40-60%
